Reference: patent US8580525B2, “Methods of screening for LTRPC7 modulators” (The Queen's Medical Center, priority 2000, dated 2013)
“Also recorded” adds a separate entry of the source.

Tests used:
Type in all cases: cell-based
LTRPC7 [1] = target: T1, LTRPC7 (Mus musculus, UniProt Q923J1); assay: Permeation of divalent metal ions in isotonic solutions, whole-cell patch-clamp; conditions: for effect on outward current / effect on inward current: isotonic solution (120 mM) of test cation for 60 s, HEK-293 over-expressing LTRPC7; for effect on outward current: +80 mV; for effect on inward current: -80 mV; for permeation sequence based on peak inward currents: isotonic solutions
T1 construct: expressed in transfected cells
Description: (§1) For patch-clamp experiments, cells grown on glass coverslips were transferred to the recording chamber and kept in a standard modified Ringer's solution of the following composition (in mM): NaCl 145, KCl 2.8, CsCl 10, CaCl2 1, MgCl2 2, glucose 10, Hepes.NaOH 10, pH 7.2. In some experiments, nominally Ca^2+ and/or Mg^2+-free extracellular solutions or isotonic Ca^2+ solutions (120 mM CaCl2) were applied by pressure ejection from wide-tipped pipettes. Intracellular pipette-filling solutions contained (in mM): Cs-glutamate 145, NaCl 8, MgCl2 1, Cs-BAPTA 10, pH 7.2 adjusted with CsOH. In some experiments, Cs-glutamate was replaced equimolarly by K-glutamate or N-methyl-D-glucamine-chloride. Patch-clamp experiments were performed in the tight-seal whole-cell configuration at 21-25° C. High-resolution current recordings were acquired by a computer-based patch-clamp amplifier system (EPC-9, HEKA, Lambrecht, Germany). Sylgard-coated patch pipettes had resistances between 2-4 M after filling with the standard intracellular solution. Immediately following establishment of the whole-cell configuration, voltage ramps of 50 ms duration spanning the voltage range of −100 to +100 mV were delivered from a holding potential of 0 mV at a rate of 0.5 Hz over a period of 200 to 400 seconds. All voltages were corrected for a liquid junction potential of 10 mV between external and internal solutions when internal solutions contained glutamate. Currents were filtered at 2.3 kHz and digitized at 100 μs intervals. Capacitive currents and series resistance were determined and corrected before each voltage ramp using the automatic capacitance compensation of the EPC-9. The low-resolution temporal development of currents at a given potential was extracted from individual ramp current records by measuring the current amplitudes at voltages of −80 mV or +80 mV.
The use of isotonic solutions to probe divalent cation entry through LTRPC7 avoids complications in permeation properties arising from ion-ion interactions, and therefore allows unequivocal interpretation of inward currents—maintained or increased inward currents can only be consistent with permeation of the available extracellular cation. Isotonic solutions of 120 mM of each divalent ion yielded appropriate osmolarities within 10 mOsm from the standard bath and pipette solutions. In this series of experiments, the cells were bathed in the standard external solution containing 1 mM Ca^2+ and 2 mM Mg^2+. At 200 s, when MagNuM had reached its full amplitude, isotonic solutions of each transition metal were applied for 60 s via a puffer pipette.

LTRPC7 [2] = target: T1, LTRPC7; assay: Equimolar substitution of 10 mM Ca^2+ by other divalent metal ions, whole-cell patch-clamp; conditions: 10 mM test cation replacing 10 mM Ca^2+, HEK-293 over-expressing LTRPC7; for effect on outward current / effect on inward current: 60 s; for effect on outward current: +80 mV; for effect on inward current / increase in inward current compared to Ca^2+: -80 mV; for increase in inward current compared to Ca^2+: no Mg^2+
Description: as §1
LTRPC7 represents an ion channel that is selective for divalent cations at negative membrane potentials and its activity is regulated by intracellular levels of Mg.nucleotides (Nadler et al., 2001). Although the channel readily permeates monovalent ions upon removal of all divalent ions, inward currents carried by LTRPC7 under physiological conditions are largely carried by the dominant extracellular ion species Ca^2+ and Mg^2+. Ion currents carried by LTRPC7 have therefore been designated MagNuM (for Magnesium.Nucleotide-regulated Metal ion currents). In order to assess the permeation properties of LTRPC7 for other divalent ions, we measured ionic currents in substitution experiments, where 10 mM Ca^2+ was replaced with 10 mM of other divalent cations (FIG. 7). In these experiments, HEK-293 cells expressing LTRPC7 were kept in a bath solution containing 10 mM Ca^2+, without Mg^2+, and development of MagNuM was monitored by whole-cell patch-clamp as described previously (Nadler et al., 2001). When the current had reached maximal amplitude, cells were transiently exposed to an extracellular solution containing 10 mM of the test cation applied via a puffer pipette for a period of 60 s.

LTRPC7 [3] = target: T1, LTRPC7; assay: Permeation and block by trivalent metal ions, whole-cell patch-clamp; conditions: for suppression of inward or outward currents carried by LTRPC7: 10 μM (data not shown); for effect on outward currents / effect on inward currents: external solution with 10 mM Ca^2+ without Mg^2+; for effect on outward currents: +80 mV; for effect on inward currents: -80 mV
Description: as §1
We next tested a series of toxic trivalent metal ions (FIG. 10), which we suspected to not permeate through LTRPC7.

LTRPC7 [4] = target: T1, LTRPC7; assay: Mn^2+ quench of fura-2 fluorescence in intact cells; conditions: 1 mM Mn^2+, initial 60 s
Description: In the second approach, we assayed LTRPC7 activity in intact cells using Mn^2+ quench of fura-2 fluorescence (FIG. 11D). In this experiment, HEK-293 cells over-expressing LTRPC7 were loaded with fura-2-AM and bathed in standard external solution with 1 mM Ca^2+ and 2 mM Mg^2+. Ca^2+-independent fluorescence was monitored at 360 nm (the isosbestic wavelength of fura-2) and after 120 s, an external solution containing 1 mM Mn^2+, 1 mM Ca^2+, and 0 Mg^2+ was applied for 180 s. To determine baseline quench levels, this protocol was applied to HEK-293 cells that were transfected with the same tetracycline-inducible recombinant LTRPC7 construct, but remained uninduced. As clearly shown in FIG. 11D, the application of 1 mM Mn^2+ caused a pronounced quench of the 360 nm signal in HEK-293 cells induced to express LTRPC7 (n=5), whereas Mn^2+-induced quench of the 360 nm signal in uninduced cells (n=5) was noticeable but much less dramatic. Linear regression over the initial 60 s of Mn^2+ exposure yielded a 10-fold higher rate of Mn^2+-induced quench of fura-2 fluorescence in induced cells (28%/o/min) as compared to uninduced cells (2.9%/min).

LTRPC7 [5] = target: T1, LTRPC7; assay: Simultaneous patch-clamp of MagNuM and fura-2 measurement of [Ca^2+]i, block by Mg.ATP; conditions: 3 mM Mg.ATP in internal solution
Source text: Based on the above permeation data, we conclude that LTRPC7 must be viewed as a potential entry pathway for a wide variety of trace and toxic metal ions. […] We therefore performed two sets of experiments to address this issue. In the first, we assayed Ca^2+ permeation of LTRPC7 under conditions in which intracellular Ca^2+ is left unbuffered and LTRPC7 is activated or suppressed by manipulation of patch pipette [ATP]i. To this end, HEK-293 cells expressing LTRPC7 were kept in a bath solution with 2 mM each of Ca^2+ and Mg^2+ and were perfused with a Cs-glutamate-based internal solution containing 200 μM fura-2. Simultaneous development of MagNuM was monitored under whole-cell patch-clamp and delivering, from a holding potential of 0 mV, repetitive voltage ramps that spanned −100 to +100 mV over 50 ms at a rate of 0.5 Hz. When Mg.ATP was absent in the pipette, MagNuM rapidly activated, as witnessed by the increase in both inward and outward currents (FIG. 11A) as well as its characteristic current-voltage relationship (FIG. 11B). […] The progressive decrease in amplitude of hyperpolarization-driven changes in [Ca^2+]i observed under these conditions is likely due to increased Ca^2+ buffering as fura-2 equilibrates with the cytosol at its final concentration of 200 μM. […]

T1 sequence (Q923J1 2-1863 limits assumed): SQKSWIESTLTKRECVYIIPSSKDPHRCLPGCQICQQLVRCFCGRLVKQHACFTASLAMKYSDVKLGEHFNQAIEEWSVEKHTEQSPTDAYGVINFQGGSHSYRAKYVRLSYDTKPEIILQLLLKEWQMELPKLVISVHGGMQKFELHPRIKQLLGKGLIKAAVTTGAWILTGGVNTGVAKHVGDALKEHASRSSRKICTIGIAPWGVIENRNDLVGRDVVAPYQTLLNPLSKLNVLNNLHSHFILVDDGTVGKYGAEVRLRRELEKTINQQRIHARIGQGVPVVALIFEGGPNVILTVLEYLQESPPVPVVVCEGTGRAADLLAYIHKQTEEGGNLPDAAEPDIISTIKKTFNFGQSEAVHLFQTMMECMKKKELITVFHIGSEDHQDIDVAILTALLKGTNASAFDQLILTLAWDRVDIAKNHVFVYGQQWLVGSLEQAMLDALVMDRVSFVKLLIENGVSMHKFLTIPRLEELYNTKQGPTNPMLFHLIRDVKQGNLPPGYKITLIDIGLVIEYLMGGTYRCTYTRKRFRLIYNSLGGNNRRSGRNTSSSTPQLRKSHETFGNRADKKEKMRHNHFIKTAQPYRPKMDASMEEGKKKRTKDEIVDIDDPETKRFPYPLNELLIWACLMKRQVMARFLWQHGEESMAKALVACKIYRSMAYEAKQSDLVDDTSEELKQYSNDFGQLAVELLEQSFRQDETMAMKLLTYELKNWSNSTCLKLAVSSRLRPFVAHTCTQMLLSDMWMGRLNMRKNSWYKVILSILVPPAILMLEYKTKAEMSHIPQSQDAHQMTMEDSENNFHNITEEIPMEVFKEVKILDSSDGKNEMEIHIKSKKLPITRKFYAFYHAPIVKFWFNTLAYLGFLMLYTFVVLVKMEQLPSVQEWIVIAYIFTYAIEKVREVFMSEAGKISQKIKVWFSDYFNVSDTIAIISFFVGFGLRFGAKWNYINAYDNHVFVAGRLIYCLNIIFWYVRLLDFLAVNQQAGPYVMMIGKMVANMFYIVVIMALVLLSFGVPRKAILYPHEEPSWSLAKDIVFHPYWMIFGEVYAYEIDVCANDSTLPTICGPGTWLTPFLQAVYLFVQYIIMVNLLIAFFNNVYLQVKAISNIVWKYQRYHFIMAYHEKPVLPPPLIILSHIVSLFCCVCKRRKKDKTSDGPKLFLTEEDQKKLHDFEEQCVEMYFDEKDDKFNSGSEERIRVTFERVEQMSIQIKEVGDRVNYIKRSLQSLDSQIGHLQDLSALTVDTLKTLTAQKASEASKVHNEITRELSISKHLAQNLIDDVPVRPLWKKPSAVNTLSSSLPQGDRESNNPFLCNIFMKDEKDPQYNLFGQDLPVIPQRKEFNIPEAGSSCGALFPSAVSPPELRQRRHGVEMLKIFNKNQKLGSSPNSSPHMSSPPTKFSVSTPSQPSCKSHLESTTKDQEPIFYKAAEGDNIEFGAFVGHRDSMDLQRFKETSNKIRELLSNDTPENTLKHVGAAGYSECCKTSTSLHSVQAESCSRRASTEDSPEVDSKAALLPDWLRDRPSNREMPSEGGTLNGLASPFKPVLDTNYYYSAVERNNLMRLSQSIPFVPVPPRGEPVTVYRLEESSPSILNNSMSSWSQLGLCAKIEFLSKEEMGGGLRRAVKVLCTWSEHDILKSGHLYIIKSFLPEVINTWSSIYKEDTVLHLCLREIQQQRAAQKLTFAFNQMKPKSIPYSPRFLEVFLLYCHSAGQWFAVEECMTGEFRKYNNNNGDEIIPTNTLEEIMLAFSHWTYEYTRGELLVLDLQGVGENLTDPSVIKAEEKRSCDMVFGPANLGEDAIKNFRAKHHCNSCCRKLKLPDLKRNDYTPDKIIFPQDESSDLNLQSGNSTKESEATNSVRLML

Row | Compound | effect on outward current (LTRPC7 [1]) | effect on inward current (LTRPC7 [1]) | effect on outward current (LTRPC7 [2]) | effect on inward current (LTRPC7 [2]) | increase in inward current compared to Ca^2+ (LTRPC7 [2]) | other results
1 | [Ni+2] [Ni^2+] | strong block of the outward current | large increase of the inward | block of outward currents; also recorded: block of the outward current | large increase of the inward current | greater than three-fold | permeation sequence based on peak inward currents (LTRPC7 [1]): most permeant metal
2 | [Sr+2] [Sr^2+] | relatively minor inhibitions of the outward current | moderate increases of the inward | increases of the outward current | slight to moderate increases of the inward current | – | permeation sequence based on peak inward currents (LTRPC7 [1]): more effectively transported than Ca^2+ and Mg^2+; effect on outward current (LTRPC7 [2]; listed as Sr2+): increase of the outward current; effect on inward current (LTRPC7 [2]; listed as Sr2+): slight to moderate increase of the inward current
3 | [Ba+2] [Ba^2+] | relatively minor inhibitions of the outward current | moderate increases of the inward | increase of the outward current | slight to moderate increase of the inward current | – | permeation sequence based on peak inward currents (LTRPC7 [1]): more effectively transported than Ca^2+ and Mg^2+
4 | [La+3] [La^3+] | – | – | – | – | – | suppression of inward or outward currents carried by LTRPC7 (LTRPC7 [3]): ineffective; effect on outward currents (LTRPC7 [3]; 10 mM): far less effective in suppressing outward currents; effect on inward currents (LTRPC7 [3]; 10 mM): inhibited inward currents with no sign of significant permeation
5 | [Mn+2] [Mn^2+] | strong block of the outward current | gradual increase of the inward current | block of outward currents; also recorded: block of the outward current | slight to moderate increase of the inward current | less than double | rate of Mn^2+-induced quench, induced compared to uninduced cells (LTRPC7 [4]): 10 fold; rate of Mn^2+-induced quench of fura-2 fluorescence (LTRPC7 [4]; 360 nm, uninduced cells): 2.9 %/min
6 | [Gd+3] [Gd^3+] | – | – | – | – | – | suppression of inward or outward currents carried by LTRPC7 (LTRPC7 [3]): ineffective; relative potency as blocker of MagNuM (LTRPC7 [3]; 10 mM, Gd^3+ versus La^3+): more potent inhibitor; also recorded: more potent blocker of MagNuM; effect on outward currents (LTRPC7 [3]; 10 mM): completely suppressed; effect on inward currents (LTRPC7 [3]; 10 mM): inhibited inward currents with no sign of significant permeation
7 | [Ca+2] [Ca^2+] | block of the outward current | increase of the inward | – | – | – | effect on outward current (LTRPC7 [1]; listed as CaCl2): strongly inhibited outward currents; effect on inward current (LTRPC7 [1]; listed as CaCl2): enhanced inward currents
8 | Nc1ncnc2c1ncn2[C@@H]1O[C@H](COP(=O)(O)OP(=O)([O-])OP(=O)([O-])O)[C@@H](O)[C@H]1O.[Mg+2] [Mg.ATP] | – | – | – | – | – | [Ca^2+]i (fura-2) (LTRPC7 [5]; HEK-293 over-expressing LTRPC7): remained similarly steady; also recorded: remains at steady basal levels; LTRPC7 activity (MagNuM currents) (LTRPC7 [5]; bath 2 mM Ca^2+ and 2 mM Mg^2+): little change in LTRPC7 activity
9 | [Cd+2] [Cd^2+] | – | – | increases of the outward current | slight to moderate increases of the inward current | – | effect on outward current (LTRPC7 [2]; listed as Cd 2+): increase of the outward current; effect on inward current (LTRPC7 [2]; listed as Cd 2+): slight to moderate increase of the inward current
10 | [Co+2] [Co^2+] | strong block of the outward current | gradual increase of the inward current | block of outward currents; also recorded: block of the outward current | slight to moderate increase of the inward current | less than double | –
11 | [Mg+2] [Mg^2+] | block of the outward current | – | strongest block of outward currents; also recorded: block of the outward current | slight to moderate increase of the inward current | less than double | –
12 | [Zn+2] [Zn^2+] | – | – | block of outward currents; also recorded: block of the outward current | large increase of the inward current | greater than three-fold | –
